Source: ChEMBL document CHEMBL1201862, “PubChem BioAssay data set” (2004)
Active and inactive are the calls of the source.

Tests used:
Prothrombin = Prothrombin (Homo sapiens, UniProt P00734); assay: Thrombin 1536 HTS Dose Response Confirmation. [Related pubchem assays: 1046 (Thrombin 1536 HTS; hits were confirmed in this assay)]; type: functional
Estrogen receptor beta = Estrogen receptor beta (Homo sapiens, UniProt Q92731);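 further: recombinant ER-beta bound to coactivator SRC1 peptide in presence of estradiol agonist; inhibitors block coactivator peptide binding and lower the FRET signal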
[1] = target: T1, Oxysterols receptor LXR-beta (Homo sapiens, UniProt P55055); type: functional, cell-based
T1 sequence (P55055 whole entry): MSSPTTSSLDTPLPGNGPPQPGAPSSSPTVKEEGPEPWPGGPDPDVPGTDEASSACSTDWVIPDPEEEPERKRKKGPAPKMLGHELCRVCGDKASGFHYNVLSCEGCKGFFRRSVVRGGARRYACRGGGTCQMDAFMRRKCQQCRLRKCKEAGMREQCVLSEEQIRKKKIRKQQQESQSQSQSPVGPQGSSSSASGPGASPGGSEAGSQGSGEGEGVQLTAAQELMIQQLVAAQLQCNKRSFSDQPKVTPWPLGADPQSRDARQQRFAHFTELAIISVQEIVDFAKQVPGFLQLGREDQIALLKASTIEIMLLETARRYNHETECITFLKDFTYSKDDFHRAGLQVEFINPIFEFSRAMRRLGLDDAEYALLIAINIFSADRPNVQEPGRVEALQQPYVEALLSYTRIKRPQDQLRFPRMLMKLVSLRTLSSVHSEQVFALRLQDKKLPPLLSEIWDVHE

Aminopeptidase N = target: T2, Aminopeptidase N (Plasmodium falciparum FcB1/Columbia, UniProt O96935); assay: malaria alanyl aminopeptidase activity blockers – biochemical, fluorogenic H-Leu-NHMec substrate, 1536-well (AID 1445); design: species or system Plasmodium falciparum 3D7, 3D7
T2 sequence (O96935 whole entry): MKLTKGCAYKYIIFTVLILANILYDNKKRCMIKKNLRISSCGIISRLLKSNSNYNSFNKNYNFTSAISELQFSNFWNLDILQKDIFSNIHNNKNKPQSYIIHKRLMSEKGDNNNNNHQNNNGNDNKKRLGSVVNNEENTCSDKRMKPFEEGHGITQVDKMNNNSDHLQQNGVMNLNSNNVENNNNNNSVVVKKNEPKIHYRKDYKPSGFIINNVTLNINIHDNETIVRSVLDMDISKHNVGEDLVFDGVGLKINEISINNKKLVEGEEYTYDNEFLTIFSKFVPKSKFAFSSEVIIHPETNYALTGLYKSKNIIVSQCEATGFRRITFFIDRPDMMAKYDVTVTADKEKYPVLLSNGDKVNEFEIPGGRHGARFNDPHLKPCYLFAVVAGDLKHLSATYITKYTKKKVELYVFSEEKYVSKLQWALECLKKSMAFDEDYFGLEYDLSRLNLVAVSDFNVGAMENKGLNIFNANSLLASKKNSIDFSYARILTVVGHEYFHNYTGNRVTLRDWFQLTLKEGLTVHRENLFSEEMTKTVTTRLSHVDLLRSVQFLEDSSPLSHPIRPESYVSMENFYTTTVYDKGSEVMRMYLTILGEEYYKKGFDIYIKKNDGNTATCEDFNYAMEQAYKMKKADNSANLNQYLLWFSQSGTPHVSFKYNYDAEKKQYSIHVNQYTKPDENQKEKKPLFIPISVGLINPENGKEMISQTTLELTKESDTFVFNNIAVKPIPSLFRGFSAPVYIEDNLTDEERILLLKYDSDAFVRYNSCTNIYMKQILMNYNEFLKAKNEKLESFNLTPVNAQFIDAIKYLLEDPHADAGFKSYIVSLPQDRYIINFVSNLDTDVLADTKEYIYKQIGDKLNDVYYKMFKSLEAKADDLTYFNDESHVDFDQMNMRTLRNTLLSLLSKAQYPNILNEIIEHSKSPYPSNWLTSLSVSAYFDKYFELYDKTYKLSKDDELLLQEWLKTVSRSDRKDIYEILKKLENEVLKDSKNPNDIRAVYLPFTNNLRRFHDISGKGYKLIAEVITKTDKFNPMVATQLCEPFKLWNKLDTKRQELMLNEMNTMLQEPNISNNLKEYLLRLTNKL

Galanin receptor type 3 = target: T3, Galanin receptor type 3 (Homo sapiens, UniProt O60755); assay: Fluorescence-based cell-based primary high throughput dose response assay to identify antagonists of the Galanin Receptor 3 (GalR3).; type: functional
T3 sequence (O60755 whole entry): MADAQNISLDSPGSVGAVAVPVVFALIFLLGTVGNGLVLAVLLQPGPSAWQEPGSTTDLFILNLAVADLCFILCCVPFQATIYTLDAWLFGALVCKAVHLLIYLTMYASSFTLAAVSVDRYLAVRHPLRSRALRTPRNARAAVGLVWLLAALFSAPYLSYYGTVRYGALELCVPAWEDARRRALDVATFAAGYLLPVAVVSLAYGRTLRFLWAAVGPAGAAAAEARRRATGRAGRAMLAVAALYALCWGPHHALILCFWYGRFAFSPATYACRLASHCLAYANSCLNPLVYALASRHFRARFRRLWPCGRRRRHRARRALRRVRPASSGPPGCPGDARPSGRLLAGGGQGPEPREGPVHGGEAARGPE

cells [2] = type: functional, cell-based; details: HEK-CNG
Albumin = Albumin (Bos taurus, UniProt P02769); assay: Counterscreen for inhibitors of T-cell receptor (TCR)-CD3 interaction: Fluorescence-based biochemical high throughput dose response assay to identify inhibitors of T-cell receptor (TCR)-CD3 interaction using a TAMRA-labeled BSA probe.; type: functional
Major prion protein = Major prion protein (Homo sapiens, UniProt P04156); type: functional, cell-based
cells [3] = assay: cells
Cytochrome P450 3A4 = Cytochrome P450 3A4 (Homo sapiens, UniProt P08684);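 further: CYP3A4 tested as one member of a cytochrome P450 panel screen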
[4] = Luminescence-based cell-based high throughput dose response assay to identify activators of the DAF-12 from the parasite S. stercoralis (ssDAF-12).; type: functional
[5] = target: T1, Oxysterols receptor LXR-beta; assay: LXR agonists, Gal4 luciferase reporter, dose response, counter-screen for ssDAF-12 agonist project, cell-based, luminescence, HEK293, S. stercoralis campaign (AID 720737); type: functional; details: read-out: IC50 (the source's name)
[6] = target: T1, Oxysterols receptor LXR-beta; type: functional, cell-based; remark: listed apart in the source
cells [7] = assay: cells; remark: listed apart in the source
[8] = Luminescence Cell-Based Dose Response HTS to Identify Activators of Luciferase Translation or Activity in H4 […] Cells. [Related pubchem assays: 1829 (Project Summary), 1814 (Primary HTS)]; type: functional
H4 = assay: Luminescence Cell-Based Dose Response HTS to Identify Activators of 5'UTR Stem-Loop Driven Prion Protein mRNA Translation in H4 Neuroglioblastoma Cells. [Related pubchem assays: 1829 (Project Summary), 1814 (Primary HTS)]; type: functional; details: Homo sapiens
[9] = target: Luciferin 4-monooxygenase (Photinus pyralis, UniProt P08659); assay: Counter Screen for Luciferase-based Assay Positives. [Related pubchem assays: 620, 618, 411 ]
[10] = Luminescence Cell-Based Dose Response HTS to Identify Inhibitors of 5'UTR Stem-Loop Driven Prion Protein mRNA Translation in H4 Neuroglioblastoma Cells. [Related pubchem assays: 1827 (Project Summary), 1813 (Primary HTS)]; type: functional
[11] = alpha-synuclein stem-loop luciferase translation blockers – H4 neuroglioma cells, luminescence, confirmation (AID 1988); type: functional, cell-based
HT-1080 = assay: HT1080 cell viability loss – fluorescence readout (AID 620); type: functional, cell-based; details: Homo sapiens
BJ [12] = assay: BJ-TERT fibroblast viability loss – cell-based, RAS-independent, luminescence, dose response (AID 1933); type: functional; details: Homo sapiens
BJ [13] = assay: cells; type: functional, cell-based; details: Homo sapiens
BJ [14] = assay: BJ-TERT-LT-ST fibroblast viability loss – cell-based, RAS-independent, luminescence, dose response (AID 1935); type: functional; details: Homo sapiens;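 further: BJ fibroblasts immortalized with TERT plus LT and ST oncogenes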
[15] = DRD fibroblast viability loss – cell-based, non-viral oncogenic, luminescence, dose response (AID 1934); type: functional; details: Homo sapiens
INS1 = assay: INS-1E survival protection against cytokine death – cell-based, luminescence, retest, dose response (AID 449756); type: functional; details: Rattus norvegicus;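 further: cell death triggered by IL-1 beta plus TNF-alpha plus IFN-gamma mixture; protective hits raise ATP signal compared with cytokine alone wells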
[16] = Trypanosoma cruzi growth suppression in host cells – NIH3T3 host cells, beta-gal luminescence, confirmation (AID 2044); type: functional, cell-based;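 further: intracellular parasites grown in NIH/3T3 mouse fibroblasts as host cells; luminescent beta-galactosidase reporter signal from transgenic T. cruzi replicating inside host cells; inhibitors lower the luminescence signal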
[17] = NIH3T3 cell viability loss – ATP luminescence, mouse fibroblasts, counter-screen, dose response (AID 2010); type: functional, cell-based;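 further: cells exposed to compound for about 90 hours before reading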
[18] = viability loss in THP-1 monocytes – THP-1 cells, cytotoxicity control for Vif-APOBEC3G degradation inhibitor project, dose response (AID 1117359); type: functional; details: THP-1
Paired box protein Pax-8 = Paired box protein Pax-8 (Homo sapiens, UniProt Q06710); assay: PAX8 transcriptional activity inhibition in RMG-I – RMG-I cells, luciferase, cherry-pick, dose response (AID 687027); type: functional, cell-based;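 further: luciferase reporter driven by Pax8 target thyroperoxidase promoter measured by SteadyGlo luminescence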
[19] = IGROV1 cell killing – plate reader, dry powder samples, PAX8 inhibitor project, dose response (AID 743043); type: functional, cell-based; details: IGROV-1
[20] = OVCAR8 cell viability loss – plate reader, dry powder samples, PAX8 project, dose response (AID 743197); type: functional, cell-based; details: OVCAR-8
[21] = OVCAR-3 cell viability loss – plate reader, dry powder samples, PAX8 inhibitor project, dose response (AID 743044); type: functional, cell-based

SMILES: CC1CCc2c(sc(NC(=O)COC(=O)C3CCCO3)c2C#N)C1 (stereo not given)
- IC50 (Prothrombin): > 50 µM (not active)

SMILES: O=C(Nc1cc(C(F)(F)F)ccc1N1CCOCC1)C1Cc2ccccc2CN1C(=O)c1ccco1 (stereo not given)
- IC50 (Estrogen receptor beta): 5.94 µM (active)

SMILES: COc1ccc(CN2C(=O)c3ccccc3C2C(=O)NC2CCCCCC2)c(OC)c1 (stereo not given)
- IC50 (Prothrombin): 10.8 µM (active)

SMILES: Cc1cc(OCc2cc(C(=O)NCc3cc(C(C)C)no3)no2)cc(C)c1Cl
- EC50 [1]: > 67.5 µM (inactive)

SMILES: CCN1CCN(Cc2c(O)c(Cl)cc3c(C)cc(=O)oc23)CC1
- IC50 (Aminopeptidase N): 38.3 µM (active)
- IC50 (Estrogen receptor beta): 18 µM (active)

SMILES: CC1(C)CC2CC(C)(CN2S(=O)(=O)c2ccc(C(=O)Nc3cccc(S(=O)(=O)N4CCOCC4)c3)cc2)C1 (stereo not given)
- IC50 (Galanin receptor type 3): 805 nM (active)
- EC50 (cells [2]): > 29.9 µM (inactive)
- IC50 (Albumin): > 94.1 µM (inactive)

SMILES: CCc1nc(SCC(=O)NNC(=O)c2ccc(C)cc2)c2ccccc2n1
- IC50 (Major prion protein): 1.36 µM (active)
- IC50 (cells [3]): > 138 µM (inactive)

SMILES: CCOC(=O)CSc1nnc(NC(=O)c2ccccc2)[nH]1
- IC50 (Prothrombin): 0.862 µM (active)
- AC50 (Cytochrome P450 3A4): 39.8 µM (inconclusive)

SMILES: Cn1cc(Cl)c(C(=O)Nc2nc3ccccc3s2)n1
- IC50 [4]: > 67.5 µM (inactive)
- EC50 [5]: > 67.5 µM (inactive)
- EC50 [6]: > 67.5 µM (inactive)
- EC50 (cells [7]): > 67.5 µM (inactive)

SMILES: Cn1ccnc1SCC(=O)c1c[nH]c2ccccc12
- EC50 [8]: 343 nM (active)
- EC50 (H4): < 195 nM (active)
- IC50 [4]: > 67.5 µM (inactive)
- EC50 [5]: > 67.5 µM (inactive)

SMILES: C=CCn1c(C)cc(C(=O)CSc2nc3ccccc3[nH]2)c1C
- EC50 [9]: < 200 nM (active)
- EC50 [10]: 11.1 µM (active)
- EC50 [11]: 9.31 µM (active)
- EC50 (HT-1080): > 50 µM (not active)

SMILES: Cc1ccc(C(=N)NOC(=O)c2cccs2)cc1
- EC50 [1]: > 67.6 µM (inactive)

SMILES: O=C(c1c(Cl)nc2sccn12)N1CCN(c2cccc(Cl)c2)CC1
- EC50 (BJ [12]): 3.07 µM (active)
- EC50 [9]: 390 nM (active)
- EC50 (BJ [13]): 75.7 µM (inconclusive)
- EC50 (HT-1080): 11.3 µM (active)
- EC50 (BJ [14]): 1.36 µM (inconclusive)
- EC50 [15]: 1.56 µM (active)

SMILES: Cc1cc(N2CCOCC2)n2ncc(-c3ccccc3)c2n1
- EC50 [9]: 200 nM (active)
- EC50 (HT-1080): > 50 µM (not active)
- AC50 (INS1): 7.88 µM (active)
- EC50 [6]: > 67.5 µM (inactive)
- EC50 (cells [7]): > 67.5 µM (inactive)

SMILES: CCCCN(CCCC)S(=O)(=O)c1ccc(NC(=O)c2cccs2)cc1
- EC50 [16]: 1.83 µM (active)
- EC50 [17]: > 60 µM (not active)
- CC50 [18]: 27.9 µM (active)

SMILES: CCC1(CC)Cc2ccccc2-c2nc(S)nc(O)c21
- IC50 (Major prion protein): 3.08 µM (active)
- IC50 (cells [3]): > 138 µM (inactive)

SMILES: C[C@@H]1CN([C@H](C)CO)C(=O)c2cc(NS(=O)(=O)c3ccccc3)ccc2O[C@@H](C)CCCCO[C@@H]1CN(C)Cc1ccc(Cl)c(Cl)c1
- AC50 (Paired box protein Pax-8): 4.44 µM (active)
- AC50 [19]: 27.8 µM (active)
- AC50 [20]: 46.5 µM (active)

SMILES: COc1ccc(S(=O)(=O)Nc2ccc3c(c2)C(=O)N([C@@H](C)CO)C[C@H](C)[C@@H](CN(C)Cc2ccc(C(F)(F)F)cc2)OCCCC[C@H](C)O3)cc1
- AC50 (Paired box protein Pax-8): 6.83 µM (active)
- AC50 [21]: 46.7 µM (active)
- AC50 [19]: 37.9 µM (active)
- AC50 [20]: > 70 µM (inactive)

SMILES: COc1ccccc1S(=O)(=O)N1CC[C@H]2[C@@H](CO)N(C)c3ccc(-c4ccc(C#N)cc4)cc3[C@H]21
- AC50 (Paired box protein Pax-8): 38.1 µM (active)
- AC50 [21]: 37.8 µM (active)

SMILES: CCOC(=O)N1CCC(/N=c2/c(-c3ccc(C)cc3)c(O)c2=O)CC1
- IC50 [4]: > 67.5 µM (inactive)
- EC50 [5]: > 67.5 µM (inactive)

SMILES: O=C(O)c1cc(-c2cccs2)nc2ccc(Br)cc12
- IC50 (Major prion protein): 1.41 µM (active)
- IC50 (cells [3]): > 138 µM (inactive)
